According to patent US10941114B2, “Small molecule lipid II inhibitors” (University Of Maryland, Baltimore, priority 2015, dated 2021):
Counter-ions that a name gives are not always drawn.

System: Staphylococcus aureus
Experiment: Antibacterial activity assay (MIC, broth dilution)
Assay type: cell-based
Parameters: S. aureus Killing / Bacterial Killing S. aureus: unit not given here
Settings: for S. aureus Killing: anti-bacterial activity (MIC), strain not stated; for MIC SA USA300: Staphylococcus aureus USA 300 strain, broth microdilution

| Compound | S. aureus Killing | MIC SA USA300 [µg/mL] |
| --- | --- | --- |
| Cc1ccc(-c2cc(/C=C/C=C/c3ccc(N(C)C)cc3)[o+]c(-c3ccc(C)c(C)c3)c2)cc1C [2-((1E,3E)-4-(4-(dimethylamino)phenyl)buta-1,3-dien-1-yl)-4,6-bis(3,4~ dimethylphenyl) pyrylium boron tetrafluoride salt] | 32 | – |
| CCc1ccc(-c2cc(C)[o+]c(-c3ccc(CC)cc3)c2)cc1 [2,4-bis(4-ethylphenyl)-6-methylpyrylium boron tetrafluoride salt] | >64 | – |
| COc1ccc(-c2cc(/C=C/c3ccc(N(C)C)cc3)[n+](C)c(-c3ccc(F)cc3)c2)cc1.[I-] [Compound 3jc07-5, (E)-2-(4-(dimethylamino)styryl)-6-(4-fluorophenyl)-4-(4-methoxyphenyl)-1-methylpyridin-1-ium iodide salt] | – | 1 |
| CN1/C(=C/C=C/c2cc(-c3ccccc3)cc(-c3ccccc3)[o+]2)C(C)(C)c2ccccc21 [drawing 116, 2,4-diphenyl~6-((1E,3E)-3-(1,3,3-trimethylindolin-2-ylidene)prop-1-en-1-yl)pyrylium boron tetrafluoride salt] | 0.5 | – |
| Brc1ccc(-c2cc(/C=C/c3c[nH]c4ccccc34)[o+]c(-c3ccc(Br)cc3)c2)cc1 [(E)-2-(2-(1H-indol-3-yl)vinyl)-4,6-bis(4-bromophenyl) pyrylium boron tetrafluoride salt] | >64 | – |
| Clc1ccc(-c2cc(/C=C/c3c[nH]c4ccccc34)[o+]c(-c3ccc(Cl)cc3)c2)cc1 [(E)-2-(2-(1H-indol-3-yl)vinyl)-4,6-bis(4-chlorophenyl) pyrylium boron tetrafluoride salt] | 16 | – |
| CCc1ccc(-c2cc(/C=C/C=C/c3ccc(N(C)C)cc3)[o+]c(-c3ccc(CC)cc3)c2)cc1 [2-((1E,3E)-4-(4-(dimethylamino)phenyl)buta-1,3-dien-1-yl)-4,6-bis(4-ethylphenyl) pyrylium boron tetrafluoride salt] | 8 | – |
| Cc1ccc(-c2cc(/C=C/c3cn(C)c4ccccc34)[o+]c(-c3ccc(C)cc3)c2)cc1 [(E)-2-(2-(1-methyl-1H-indol-3-yl)vinyl)-4,6-di-p-tolylpyrylium boron tetrafluoride salt] | 0.5 | – |
| CCc1ccc(-c2cc(/C=C/c3cn(C)c4ccccc34)[o+]c(-c3ccc(CC)cc3)c2)cc1 [(E)-2.4-bis(4-ethylphenyl)-6-(2-(1-methyl-1H-indol-3-yl)vinyl)pyrylium boron tetrafiuoride salt] | 1 | – |
| CN(CCC#N)c1ccc(/C=C/c2cc(-c3ccc(F)cc3)cc(-c3ccc(F)cc3)[o+]2)cc1.F[B-](F)(F)F [Compound 3jc09-1, (E)-2-(4-((2-cyanoethyl)(methyl)amino)styryl)-4,6-bis(4-fluorophenyl)pyrylium boron tetrafluoride salt] | – | > 64 |
| Cc1ccc(-c2cc(/C=C/c3ccc(N(C)C)cc3)[o+]c(-c3ccc(C)c(C)c3)c2)cc1C [(E)-2-(4-(dimethylamino)styryl)-4,6-bis(3,4-dimethylphenyl) pyrylium boron tetrafluoride salt] | 2 | – |
| CCc1ccc(-c2cc(/C=C/c3cc4c5c(c3)CCCN5CCC4)[o+]c(-c3ccc(CC)cc3)c2)cc1 [drawing 120, (E)-2,4-bis(4-ethylphenyl)-6-(2-(1,2,3,5,6,7-hexahydropyrido [3,2,1-ij]quinolin-9-yl)vinyl)pyrylium boron tetrafluoride salt] | 1 | – |
| CN(C)c1ccc(/C=C/c2cc(-c3ccc(Br)cc3)cc(-c3ccc(Br)cc3)[o+]2)cc1 [drawing 88, (E)-2,4-bis(4-bromophenyl)-6-(4-(dimethylamino)styryl)pyrylium boron tetrafluoride salt] | 32 | – |
| Cc1ccc(-c2cc(/C=C/c3cn(C)c4ccccc34)[o+]c(-c3ccc(C)c(C)c3)c2)cc1C [(E)-2,4-bis(3,4-dimethylphenyl)-6-(2-(1-methyl-1H-indol-3-yl)vinyl)pyrylium boron tetrafluoride salt] | 1 | – |
| Cc1cc(/C=C/C=C/c2ccc(N(C)C)cc2)cc(C)[o+]1 [4-((1E,3E)-4-(4-(dimethylamino)phenyl)buta-1,3-dien-1-yl)-2,6-dimethylpyrylium boron tetrafluoride salt] | 32 | – |
| CCc1ccc(-c2cc(/C=C/c3c[nH]c4ccccc34)[o+]c(-c3ccc(CC)cc3)c2)cc1 [(E)-2-(2-(1H-indol-3-yl)vinyl)-4,6-bis(4-ethylphenyl) pyrylium boron tetrafluoride salt] | 4 | – |
| Cc1cc(-c2ccc(C(C)(C)C)cc2)cc(-c2ccc(C(C)(C)C)cc2)[o+]1 [2,4-bis(4-(tert-butyl)phenyl)-6-methylpyrylium boron tetrafiuoride salt] | >64 | – |
| COc1ccc(-c2cc(C)[o+]c(-c3ccc(OC)cc3)c2)cc1 [2,4-bis(4-methoxyphenyl)-6-methylpyrylium boron tetrafluoride salt] | >64 | – |
| COc1ccc(-c2cc(/C=C/c3ccc(N(C)C)cc3)[n+](C)c(-c3ccc(Br)cc3)c2)cc1.[I-] [Compound 3jc07-7, (E)-2-(4-bromophenyl)-6-(4-(dimethylamino)styryl)-4-(4-methoxyphenyl)-1-methylpyridin-1-ium iodide salt] | – | 1 |

| Compound | S. aureus Killing | MIC SA USA300 [µg/mL] |
| --- | --- | --- |
| Clc1ccc(-c2cc(/C=C/c3cc4c5c(c3)CCCN5CCC4)[o+]c(-c3ccc(Cl)cc3)c2)cc1 [(E)-2,4-bis(4-chlorophenyl)-6-(2-(1,2,3,5,6,7-hexahydropyrido [3,2,1-ij]quinolin-9-yl)vinyl)pyrylium boron tetrafluoride salt] | 1 | – |
| CN(C)c1ccc(/C=C/C=C/c2cc(-c3ccc(Br)cc3)cc(-c3ccc(Br)cc3)[o+]2)cc1 [2,4-bis(4-bromophenyi)-6-((1E,3E)-4-(4-(dimetliylamino)phenyl)buta-1,3-dien-1-yl)pyrylium boron tetrafluoride salt] | >64 | – |
| Cc1ccc(-c2cc(/C=C/C=C3/N(C)c4ccccc4C3(C)C)[o+]c(-c3ccc(C)cc3)c2)cc1 [drawing 117, 2,4-di-p-tolyl-6-((1E,3E)-3-(1,3,3-trimethylindolin-2-ylidene)prop-1-en-1-yl)pyrylium boron tetrafluoride salt] | 1 | – |
| Cc1cc(-c2ccc(Cl)cc2)cc(-c2ccc(Cl)cc2)[o+]1 [2,4-bis(4-chlorophenyl)-6-methylpyrylium boron tetrafluoride salt] | >64 | – |
| CN(CCC#N)c1ccc(/C=C/c2cc(-c3ccccc3)cc(-c3ccc(F)cc3)[n+]2C)cc1.[I-] [Compound 3jc07-2, (E)-2-(4-((2-cyanoethyl)(methyl)amino)styryl)-6-(4-fluorophenyl)-1-methyl-4-phenylpyridin-1-ium iodide salt] | – | 32 |
| Cc1cc(C)[o+]c(C)c1 [2,4,6-trimethylpyrylium boron tetrafluoride salt] | >64 | – |
| CN(CCC#N)c1ccc(/C=C/c2cc(-c3ccccc3)cc(-c3ccc(Br)cc3)[n+]2C)cc1.[I-] [Compound 3jc07-4, (E)-2-(4-bromophenyl)-6-(4-((2-cyanoethyl)(methyl)amino)styryl)-1-methyl-4-phenylpyridin-1-ium iodide salt] | – | 32 |
| CN(C)c1ccc(/C=C/C=C/c2cc(-c3ccc(C(C)(C)C)cc3)cc(-c3ccc(C(C)(C)C)cc3)[o+]2)cc1 [2,4-bis(4-(tert-butyl)phenyl)-6-((1E,3E)-4-(4-(dimethylamino)phenyl)buta-1,3-dien-1-yl)pyrylium boron tetrafluoride salt] | 64 | – |
| Cc1ccc(-c2cc(/C=C/c3c[nH]c4ccccc34)[o+]c(-c3ccc(C)cc3)c2)cc1 [(E)-2-(2-(1H-indol-3-yl)vinyl)-4,6-di-p-tolylpyiylium boron tetrafluoride salt] | 4 | – |
| COc1ccc(-c2cc(/C=C/c3ccc(N(C)CCC#N)cc3)[n+](C)c(-c3ccc(Br)cc3)c2)cc1.[I-] [Compound 3jc07-8] | – | 16 |
| Cc1ccc(-c2cc(/C=C/c3cc4c5c(c3)CCCN5CCC4)[o+]c(-c3ccc(C)cc3)c2)cc1 [(E)-2-(2-(1,2,3,5,6,7-hexahydropyrido [3,2,1-ij]quinolin-9-yl)vinyl)-4,6-di-p-tolylpyrylium boron tetrafluoride salt] | 1 | – |
| Cn1cc(/C=C/c2cc(-c3ccc(Cl)cc3)cc(-c3ccc(Cl)cc3)[o+]2)c2ccccc21 [(E)-2,4-bis(4-chlorophenyl)-6-(2-(1-methyl-1H-indol-3-yl)vinyl)pyrylium boron tetrafluoride salt] | 64 | – |
| CN(C)c1ccc(/C=C/c2cc(-c3ccc(I)cc3)cc(-c3ccc(F)cc3)[n+]2C)cc1.[I-] [Compound 3jc07-9, (E)-2-(4-(dimethylamino)styryl)-6-(4-fluorophenyl)-4-(4-iodophenyl)-1-methylpyridin-1-ium iodide salt] | – | 4 |
| C(=C\c1cc(-c2ccccc2)cc(-c2ccccc2)[o+]1)/c1cc2c3c(c1)CCCN3CCC2 [(E)-2-(2-(1,2,3,5,6,7-hexahydropyrido [3,2,1-ij]quinolin-9-yl)vinyl)-4,6-diphenylpyrylium boron tetrafluoride salt] | 1 | – |
| Cc1cc(-c2ccc(C)c(C)c2)cc(-c2ccc(C)c(C)c2)[o+]1 [2,4-bis(3,4-dimethylphenyl)-6-methylpyrylium boron tetrafluoride salt] | >64 | – |
| CN(C)c1ccc(/C=C/c2cc(-c3ccc(C(C)(C)C)cc3)cc(-c3ccc(C(C)(C)C)cc3)[o+]2)cc1 [(E)-2,4-bis(4-(tert-butyl)phenyl)-6-(4-(dimethylamino)styryl)pyrylium boron tetrafluoride salt] | 8 | – |
| C(=C\c1c[nH]c2ccccc12)/c1cc(-c2ccccc2)cc(-c2ccccc2)[o+]1 [(E)-2-(2-(1H-indol-3-yl)vinyl)-4,6-diphenylpyrylium boron tetrafluoiide salt] | 1 | – |
| CN(C)c1ccc(/C=C/c2cc(-c3ccccc3)cc(-c3ccc(Br)cc3)[n+]2C)cc1.[I-] [Compound 3jc07-3, (E)-2-(4-bromophenyl)-6-(4-(dimethylamino)styryl)-1-methyl-4-phenylpyridin-1-ium iodide salt] | – | 2 |
